Ends that are not written are not given here.
How the values were obtained:
[1] = system: Gram-positive bacteria (S. aureus, S. epidermidis); test: Geometric mean of MICs against Gram-positive bacteria; type: cell-based; set-up: unit not given here
Description: (§1) The antibacterial activities of the peptides against […] were evaluated using a modified version of the Clinical Laboratory and Standards Institute (CLSI) broth microdilution method, as previously described. Briefly, the bacteria were cultured in liquid LB medium (comprising 10 g/L tryptone, 5 g/L yeast extract, and 10 g/L NaCl) at 37 °C until reaching mid-log phase. Subsequently, the bacterial concentration was adjusted to 1 × 10^6 colony-forming units (CFU)/mL. The peptides were then diluted serially with phosphate-buffered saline (PBS), followed by the addition of 50 μL of the diluted peptides to 50 μL of the bacterial suspension in a 96-well plate (Corning Inc., Lowell, MA, USA). After incubating at 37 °C for 18 to 20 h, the absorbance of each well was measured using a multi-well microplate reader (SpectraMax M5; Molecular Devices, Sunnyvale, CA, USA) at 600 nm.

[2] = system: Pseudomonas aeruginosa (1.2421); type: cell-based
From the text: (§2) The LL-37, SAAP-148 and its analogues peptides were synthesized according to the standard Fmoc procedure. The Fmoc-protected resin and monomers are first treated with a basic solvent (piperidine) to remove the amino protecting groups. The carboxyl group of the next amino acid is activated by an activator. The activated monomer reacts with the free amino group to form a peptide bond. These two steps are repeated in a cycle until the synthesis is complete. After synthesis, the peptide is eluted from the column and purified by reverse-phase semipreparative high-performance liquid chromatography as detailed in Table 1. The peptides were dissolved in PBS to create a 1000 μmol/L stock solution for subsequent use. The purity of the synthetic peptide exceeded 95%. Blood samples from healthy donors were obtained from the Fifth Medical Center of Chinese PLA General Hospital (Beijing, China). Human normal lung epithelial cells (BEAS-2B) and mouse mononuclear macrophages cells (RAW 264.7) were sourced from Beyotime Biotechnology (Beijing, China), along with the Enhanced Cell Counting Kit-8 (CCK-8) and nitric oxide detection kit. RPMI-1640 and DMEM were procured from Merck (Darmstadt, Germany), while FBS was obtained from ExCell Bio (Shanghai, China). LPS-B5 (from E. coli 055:B5) was procured from Invivogen (Toulouse, France). Five bacterial strains, including Escherichia coli (1.8732), Pseudomonas aeruginosa (1.2421), Klebsiella pneumonia (1.1736) as Gram-negative bacteria, and Staphylococcus aureus (1.8721) and Staphylococcus epidermidis (1.4260) as Gram-positive bacteria, were procured from the China General Microbiological Culture Collection Centre (CGMCC) (Beijing, China).
as §1

[3] = system: Staphylococcus aureus (1.8721); type: cell-based
From the text: as §2, §1

[4] = system: Escherichia coli (1.8732); type: cell-based
From the text: as §2, §1

[5] = system: Staphylococcus epidermidis (1.4260); type: cell-based
From the text: as §2, §1

[6] = system: Gram-negative bacteria (E. coli, P. aeruginosa, K. pneumoniae); test: Geometric mean of MICs against Gram-negative bacteria; type: cell-based; set-up: unit not given here
Description: as §1

[7] = system: human erythrocytes; test: Haemolytic activity; type: cell-based
Description: The haemolytic activity of the peptides was evaluated using a standard procedure with minor adjustments. Fresh human erythrocytes were washed thrice and subsequently resuspended at 1.25% haematocrit in PBS. Forty microlitres PBS-diluted peptide solution was added to a 96-well plate (Corning Inc., Lowell, MA, USA), and 160 μL of erythrocytes was added. After incubation at 37 °C for 30 min, the samples were centrifuged, and the absorbance of the supernatant was measured at 450 nm using a multi-well microplate reader (SpectraMax M5; Molecular Devices, Sunnyvale, CA, USA) and compared with the 100% haemolysis caused by 0.1% Triton X-100. The percentage of haemolysis was calculated according to the equation: Haemolysis%=Asample−Ablank/Atriton−Ablank×100

[8] = Reversed-phase HPLC retention time as measure of peptide hydrophobicity; type: physicochemical; settings: retention time by reverse-phase HPLC, reflects hydrophobicity difference between analogues
From the text: The physicochemical parameters crucial for the antimicrobial activity of AMPs have been identified, encompassing net charge, helicity, hydrophobicity, and amphipathicity. The hydropathicity, mean relative hydrophobic moment, and charge of peptides were predicted using the HeliQuest (https://heliquest.ipmc.cnrs.fr/ (accessed on 12 March 2024)). Lysine is a hydrophilic amino acid, and its substitution leads to a decrease in the hydrophobicity of the SAAP-148 analogue. The anticipated results are consistent, with the degree of reduction in […] varying depending on the position at which lysine is substituted (Table 2). The amphipathicity of the peptides, as denoted by the μH (mean relative hydrophobic moment), is elaborated on in Table 2. The hydrophobic moment of SAAP-148 analogues was decreased except for SAAP-10, which is on account of the substitution occurring on the18th residue. (Figure 1) The 18th residue of SAAP-148 is glutamine, a polar amino acid residue, located at the junction of the hydrophobic and hydrophilic surfaces of the SAAP-148 α-helix. […] The retention time data determined by reversed-phase high-performance liquid chromatography (RP-HPLC) reflects the hydrophobicity difference between peptide analogues. It is well documented that the formation of a hydrophobic-binding domain due to peptide secondary structure can affect peptide interactions with reversed-phase matrices. This effect was observed particularly for amphipathic α-helical peptides. Given this preferred binding domain, amphipathic α-helical peptides are considerably more retentive than non-amphipathic peptides with the same amino acid composition.
This phenomenon was particularly evident in the case of amphipathic α-helical peptides. […] This discrepancy may be attributed to the lack of a well-defined α-helical structure in SAAP-148 and its analogues (Figure S1).

[9] = system: Klebsiella pneumonia (1.1736); type: cell-based, Klebsiella pneumoniae
From the text: as §2, §1

[10] = CD spectra, secondary structure by BeStSel; type: physicochemical; settings: 30 μM SDS as printed, 100 μM peptide, 25 °C
Description: CD spectra (Figure S1) were acquired using a JASCO J-1500 spectropolarimeter (JASCO Inc., Easton, MD, USA) in 0.1 cm pathlength cells under nitrogen at 25 °C. The spectra were recorded in the range of 190 to 250 nm at a peptide concentration of 100 μM in SDS. Secondary structure was determined using the BeStSel server. Hydropathicity, mean relative hydrophobic moment, and charge of peptides were predicted using the HeliQuest (https://heliquest.ipmc.cnrs.fr/ (accessed on 12 March 2024)). The 3D structure of SAAP-148 and its analogues (Figure S2) was predicted using PEP-FOLD4 servers (https://bioserv.rpbs.univ-paris-diderot.fr/services/PEP-FOLD4/ (accessed on 19 June 2024)).

[11] = system: five bacterial strains; test: MICs against all five bacterial strains (geometric mean, range); type: cell-based; set-up: unit not given here; settings: geometric mean of MICs against all five bacterial strains
Description: as §1

[12] = system: human erythrocytes versus five bacterial strains; test: Therapeutic index (MHC/GM of MIC); settings: for Fold (TI of analogue compared with SAAP-148): TI change relative to SAAP-148; for TI (MHC/MIC): ratio of MHC to geometric mean of MIC (five strains)
Description: The geometric mean of minimum inhibitory concentration (MIC) values (GM) from the five strains was calculated to provide a comprehensive assessment of antimicrobial activity, as presented in Table 4.
The therapeutic index (TI) is a widely utilized parameter for indicating the specificity of antimicrobial agents, which is determined by the ratio of MHC (hemolytic activity) and MIC (antimicrobial activity). Consequently, larger TI values signify greater antimicrobial specificity. The TI can be enhanced through one of three mechanisms: increasing antimicrobial activity, reducing hemolytic activity while maintaining antimicrobial activity, or a combination of both augmenting antimicrobial activity and diminishing hemolytic activity.

| Substance | GM to G+ [1] | MIC P. aeruginosa [2] [µM] | MIC S. aureus [3] [µM] | MIC E. coli [4] [µM] | MIC S. epidermidis [5] [µM] | GM to G− [6] | haemolytic activity compared with SAAP-148 [7] | Rt [8] [min] | MIC K. pneumoniae [9] [µM] | Others [10] [%] | Turn [10] [%] | α-Helix [10] [%] | β-Antiparallel [10] [%] | β-Parallel [10] [%] | MIC (GM) [11] | Fold (TI of analogue compared with SAAP-148) [12] | TI (MHC/MIC) [12] | fold increase of MHC over that of SAAP-148 [7] [fold] |
| --- | --- | --- | --- | --- | --- | --- | --- | --- | --- | --- | --- | --- | --- | --- | --- | --- | --- | --- |
| LKRKWKRVFKLLKRYWRQLKKPVR-NH2 [SAAP-2] | 12.51 | 3.13 | 50.00 | 3.13 | 3.13 | 4.97 | comparable hemolytic activity to SAAP-148 | 12.532 | 12.50 | 0 | 0 | 93.5 | 6.5 | 0 | 7.18 | 1 | 0.11 |  |
| LKRVWKRVFKLLKRYWRKLKKPVR-NH2 [SAAP-10] | 12.51 | 6.25 | 50.00 | 6.25 | 3.13 | 9.92 | comparable hemolytic activity to SAAP-148 | 13.69 | 25.00 | 0 | 0 | 100 | 0 | 0 | 10.88 | 0.64 | 0.07 |  |
| KKRVWKRVFKLLKRYWRQLKKPVR-NH2 [SAAP-1] | 12.51 | 3.13 | 50.00 | 3.13 | 3.13 | 3.94 | comparable hemolytic activity to SAAP-148 | 11.419 | 6.25 | 0 | 0 | 93.5 | 6.5 | 0 | 6.25 | 1.1 | 0.12 |  |
| LKRVWKRVFKLLKRYWRQLKKKVR-NH2 [SAAP-12] | 12.5 | 12.50 | 25.00 | 12.50 | 6.25 | 25 | comparable hemolytic activity to SAAP-148 | 16.604 | 100.00 | 0 | 0 | 100 | 0 | 0 | 18.95 | 0.36 | 0.04 |  |
| LKRVWKRKFKLLKRYWRQLKKPVR-NH2 [SAAP-4] | 17.69 | 3.13 | 100.00 | 1.56 | 3.13 | 7.87 |  | 9.96 | 100.00 | 3.6 | 0 | 50.9 | 45.5 | 0 | 10.88 | 83.55 | 9.19 | 133.33 |
